According to ChEMBL document CHEMBL3885861, “Open TG-GATES”:

Organism: Rattus norvegicus
Assay: Open TG-GATES - Regimen: Single
Type: toxicity, organism-based, Sprague-Dawley
Parameters: regimen Single, gender Male, age 6 weeks
Conditions: in vivo, po, 0 mg/kg, route gavage, dose level Control; for APTT / Bas / Eos / Fbg / Hb / Ht / Lym / MCH / MCHC / MCV / Mono / Neu / PT / Plat / RBC / Ret / WBC: tissue Blood; for KIDNEY_L / KIDNEY_R / KIDNEY_TOTAL: tissue Kidney; for LIVER: tissue Liver; for A/G / ALP / ALT / AST / BUN / CRE / Ca / Cl / DBIL / GLC / IP / K / LDH / Na / PL / RALB / TBIL / TC / TG / TP / gamma-GTP: tissue Plasma

Structure (SMILES): O=C(O)c1cc(/N=N/c2ccc(S(=O)(=O)Nc3ccccn3)cc2)ccc1O [SULFASALAZINE]
- TERMINAL_BW (3 h): 209.5 g
- APTT (3 h): 18.5 s
- Bas (3 h): 0%
- Eos (3 h): 0.8%
- Fbg (3 h): 220.4 mg/dL
- Hb (3 h): 12.8 g/dL
- Ht (3 h): 38.5%
- Lym (3 h): 80.4%
- MCH (3 h): 21.2 pg
- MCHC (3 h): 33.4%
- MCV (3 h): 63.4 fL
- Mono (3 h): 1.8%
- Neu (3 h): 16.4%
- PT (3 h): 12.8 s
- Plat (3 h): 116.8 x10_4/uL
- RBC (3 h): 607.8 x10_4/ul
- Ret (3 h): 7.5%
- WBC (3 h): 77.9 x10_2/uL
- KIDNEY_L (3 h): 0.9 g
- KIDNEY_R (3 h): 0.9 g
- KIDNEY_TOTAL (3 h): 1.9 g
- LIVER (3 h): 9.9 g
- A/G (3 h): 1.5
- ALP (3 h): 1055 IU/L
- ALT (3 h): 36.8 IU/L
- AST (3 h): 60.2 IU/L
- BUN (3 h): 12 mg/dL
- CRE (3 h): 0.4 mg/dL
- Ca (3 h): 10.6 mg/dL
- Cl (3 h): 101.6 meq/L
- DBIL (3 h): 0.074 mg/dL
- GLC (3 h): 196 mg/dL
- IP (3 h): 9.4 mg/dL
- K (3 h): 3.9 meq/L
- LDH (3 h): 182 IU/L
- Na (3 h): 140.2 meq/L
- PL (3 h): 140.6 mg/dL
- RALB (3 h): 3.2 g/dL
- TBIL (3 h): 0.1 mg/dL
- TC (3 h): 78 mg/dL
- TG (3 h): 73.8 mg/dL
- TP (3 h): 5.5 g/dL
- gamma-GTP (3 h): 1.4 IU/L
- TERMINAL_BW (6 h): 206.9 g
- APTT (6 h): 20.7 s
- Bas (6 h): 0%
- Eos (6 h): 1%
- Fbg (6 h): 224 mg/dL
- Hb (6 h): 13.2 g/dL
- Ht (6 h): 38.3%
- Lym (6 h): 75.8%
- MCH (6 h): 21.8 pg
- MCHC (6 h): 34.4%
- MCV (6 h): 63.6 fL
- Mono (6 h): 2.8%
- Neu (6 h): 19.2%
- PT (6 h): 12.9 s
- Plat (6 h): 114.7 x10_4/uL
- RBC (6 h): 602.8 x10_4/ul
- Ret (6 h): 7.7%
- WBC (6 h): 74.8 x10_2/uL
- KIDNEY_L (6 h): 1 g
- KIDNEY_R (6 h): 1 g
- KIDNEY_TOTAL (6 h): 2 g
- LIVER (6 h): 9.4 g
- A/G (6 h): 1.6
- ALP (6 h): 989.2 IU/L
- ALT (6 h): 35.8 IU/L
- AST (6 h): 65.8 IU/L
- BUN (6 h): 10.4 mg/dL
- CRE (6 h): 0.3 mg/dL
- Ca (6 h): 10.6 mg/dL
- Cl (6 h): 101.6 meq/L
- DBIL (6 h): 0.07 mg/dL
- GLC (6 h): 189.2 mg/dL
- IP (6 h): 9.4 mg/dL
- K (6 h): 4 meq/L
- LDH (6 h): 182.6 IU/L
- Na (6 h): 140.6 meq/L
- PL (6 h): 141.2 mg/dL
- RALB (6 h): 3.3 g/dL
- TBIL (6 h): 0.1 mg/dL
- TC (6 h): 73.2 mg/dL
- TG (6 h): 58 mg/dL
- TP (6 h): 5.4 g/dL
- gamma-GTP (6 h): 1.2 IU/L
- TERMINAL_BW (9 h): 205 g
- APTT (9 h): 18.9 s
- Bas (9 h): 0%
- Eos (9 h): 1%
- Fbg (9 h): 213.2 mg/dL
- Hb (9 h): 13.1 g/dL
- Ht (9 h): 38.3%
- Lym (9 h): 72.6%
- MCH (9 h): 21.5 pg
- MCHC (9 h): 34.1%
- MCV (9 h): 63 fL
- Mono (9 h): 3%
- Neu (9 h): 22.2%
- PT (9 h): 12.8 s
- Plat (9 h): 115.1 x10_4/uL
- RBC (9 h): 608.8 x10_4/ul
- Ret (9 h): 7%
- WBC (9 h): 85.1 x10_2/uL
- KIDNEY_L (9 h): 0.9 g
- KIDNEY_R (9 h): 0.9 g
- KIDNEY_TOTAL (9 h): 1.8 g
- LIVER (9 h): 8.7 g
- A/G (9 h): 1.6
- ALP (9 h): 765.6 IU/L
- ALT (9 h): 31.8 IU/L
- AST (9 h): 63.2 IU/L
- BUN (9 h): 11.4 mg/dL
- CRE (9 h): 0.4 mg/dL
- Ca (9 h): 10.5 mg/dL
- Cl (9 h): 103 meq/L
- DBIL (9 h): 0.078 mg/dL
- GLC (9 h): 207.2 mg/dL
- IP (9 h): 9.3 mg/dL
- K (9 h): 3.9 meq/L
- LDH (9 h): 194.2 IU/L
- Na (9 h): 141.2 meq/L
- PL (9 h): 142.2 mg/dL
- RALB (9 h): 3.4 g/dL
- TBIL (9 h): 0.1 mg/dL
- TC (9 h): 73.2 mg/dL
- TG (9 h): 76.4 mg/dL
- TP (9 h): 5.5 g/dL
- gamma-GTP (9 h): 2 IU/L
- TERMINAL_BW (24 h): 224.5 g
- APTT (24 h): 18.9 s
- Bas (24 h): 0%
- Eos (24 h): 1%
- Fbg (24 h): 220.8 mg/dL
- Hb (24 h): 13.3 g/dL
- Ht (24 h): 39%
- Lym (24 h): 73.8%
- MCH (24 h): 21.9 pg
- MCHC (24 h): 34%
- MCV (24 h): 64.3 fL
- Mono (24 h): 3.6%
- Neu (24 h): 20.4%
- PT (24 h): 12.1 s
- Plat (24 h): 117.1 x10_4/uL
- RBC (24 h): 607.2 x10_4/ul
- Ret (24 h): 6.9%
- WBC (24 h): 89.1 x10_2/uL
- KIDNEY_L (24 h): 1 g
- KIDNEY_R (24 h): 1 g
- KIDNEY_TOTAL (24 h): 2 g
- LIVER (24 h): 10.8 g
- A/G (24 h): 1.5
- ALP (24 h): 961.8 IU/L
- ALT (24 h): 45 IU/L
- AST (24 h): 75.8 IU/L
- BUN (24 h): 16.6 mg/dL
- CRE (24 h): 0.4 mg/dL
- Ca (24 h): 10.7 mg/dL
- Cl (24 h): 101.6 meq/L
- DBIL (24 h): 0.1 mg/dL
- GLC (24 h): 193.8 mg/dL
- IP (24 h): 8.1 mg/dL
- K (24 h): 4.1 meq/L
- LDH (24 h): 214.4 IU/L
- Na (24 h): 140 meq/L
- PL (24 h): 181.4 mg/dL
- RALB (24 h): 3.4 g/dL
- TBIL (24 h): 0.2 mg/dL
- TC (24 h): 89.4 mg/dL
- TG (24 h): 133 mg/dL
- TP (24 h): 5.6 g/dL
- gamma-GTP (24 h): 1.2 IU/L
